In ChEMBL document CHEMBL1212699, “Chemical approaches to understanding O-GlcNAc glycosylation in the brain” (Nat Chem Biol, 2008) one finds Ki data, which are given here for one molecule.

A short description of the test: Inhibition of beta-N-acetylglucosaminidase.

As a reminder, the Ki is a dissociation constant, usually derived from enzyme kinetics or from competition with a known ligand. The low end stands for higher affinity, the high end for lower affinity.

As for `CC(C)C(=O)N[C@H]1c2nc(CCc3ccccc3)cn2[C@H](CO)[C@@H](O)[C@@H]1O`, the affinity, expressed as Ki, was 4.6 pM.
